Non-standard residues stand in square brackets, D forms with d. Residues, ends and D or L forms follow the SMILES beside them. Aib = CC(C)(N)C(=O)O
Tests used:
Assay in all cases: MTT cytotoxicity assay, 72 hours (Example 13)
Type in all cases: cell-based, human
MOLT-4 (leukemia) = system: MOLT-4 (leukemia)
Protocol: (§1) The cytotoxic activity of other synthesized bombesin analogs was tested on eight human tumor cell lines namely HT-29, SW620, PTC (all colon), PA-1 (ovary), A549 (lung), HBL100(breast), MOLT-4 (leukemia) and DU145 (prostate). The tumor cells were collected at exponential growth phase and resuspended in medium (1.5×10^6) cells/ml in RPMI 1640 containing 10% FBS). 150 μl of medium was added to the wells of a 96-well tissue culture plate (Nunc, Denmark) followed by 30 μl of cell suspension. The plate was left in incubator (37° C., 5% CO2 overnight. 20 μl of the peptide (10^−7×10^×10M concentration) was added to marked wells of the 96-well plate. Each concentration was plated in cells served as blanks. A total volume of 200 μl was ensured in each well and plate was left in incubator (37° C., 5% CO2). After 72 hours of incubation an MTT assay was performed and percentage cytotoxicity was calculated with respect to control cells. Following tables show the cytotoxicity achieved on various cell lines at different concentrations.

A549 (lung) = system: A549 (lung)
Protocol: as §1

PTC (colon) = system: PTC (colon)
Protocol: as §1

HT-29 (colon) = system: HT-29 (colon)
Protocol: as §1

DU145 (prostate) = system: DU145 (prostate)
Protocol: as §1

PA-1 (ovary) = system: PA-1 (ovary)
Protocol: as §1

HBL100 (breast) = settings: HBL
Protocol: as §1

SW620 (colon) = system: SW620 (colon)
Protocol: as §1

Structure (SMILES) | Percent Cytotoxicity (MOLT-4 (leukemia); MOLT4, 1 nM) | Percent Cytotoxicity (MOLT-4 (leukemia); MOLT4, 10 nM) | Percent Cytotoxicity (MOLT-4 (leukemia); MOLT4, 100 nM) | Percent Cytotoxicity (A549 (lung); A549, 10 nM) [%] | Percent Cytotoxicity (A549 (lung); A549, 100 nM) [%] | Percent Cytotoxicity (PTC (colon); 1 nM) [%] | Percent Cytotoxicity (PTC (colon); 10 nM) [%] | Percent Cytotoxicity (PTC (colon); 100 nM) [%] | Percent Cytotoxicity (PTC (colon); 100 PM) [%] | Percent Cytotoxicity (HT-29 (colon); HT29, 10 nM) [%] | Percent Cytotoxicity (HT-29 (colon); HT29, 100 nM) | Percent Cytotoxicity (DU145 (prostate); DU145, 10 nM) | Percent Cytotoxicity (DU145 (prostate); DU145, 100 nM) | Percent Cytotoxicity (PA-1 (ovary); PA-1, 1 nM) [%] | Percent Cytotoxicity (PA-1 (ovary); PA-1, 10 nM) [%] | Percent Cytotoxicity (PA-1 (ovary); PA-1, 100 nM) [%] | Percent Cytotoxicity (PA-1 (ovary); PA-1, 100 PM) [%] | Percent Cytotoxicity (HBL100 (breast); 1 nM) [%] | Percent Cytotoxicity (HBL100 (breast); 10 nM) [%] | Percent Cytotoxicity (HBL100 (breast); 100 nM) [%] | also measured
CC[C@H](C)[C@H](NC(=O)[C@H](Cc1c[nH]cn1)NC(=O)CNC(=O)[C@@H](NC(=O)C(C)(C)NC(=O)[C@H](Cc1c[nH]c2ccccc12)NC(=O)[C@H](CCC(N)=O)NC(=O)[C@H](N)Cc1ccccc1)C(C)C)C(N)=O [SEQ ID: 6, D-Phe-Gln-Trp-Aib-Val-Gly-His-Ile-NH2] (H-[dF]QW[Aib]VGHI-NH2; N-terminus assumed) | 0.8 ± 0.1% | 20.4 ± 4.3% | NIL | 3.2 ± 0.1 | 1.9 ± 0.6 | 9.1 ± 0.7 | 10.4 ± 0.8 | 24.7 ± 5.2 | 10.1 ± 0.6 | 6.8 ± 0.7 | NIL | 16.6% | 13.7 ± 0.9% | 7.4 ± 1.0 | 8.7 ± 1.9 | 9.2 ± 1.0 | 11.1 ± 2.9 | 1.2 ± 0.3 | 6.0 ± 0.4 | 17.0 ± 0.5 | Percent Cytotoxicity (MOLT-4 (leukemia); MOLT4, 100 PM): 11.0 ± 0.6%; Percent Cytotoxicity (A549 (lung); A549, 1 nM): 13.0 ± 0.8%; Percent Cytotoxicity (A549 (lung); A549, 100 PM): 12.4 ± 0.7%; Percent Cytotoxicity (HT-29 (colon); HT29, 1 nM): 26.7 ± 4.2%; Percent Cytotoxicity (HT-29 (colon); HT29, 100 PM): 16.8 ± 0.5%; Percent Cytotoxicity (DU145 (prostate); DU145, 1 nM): 3.9 ± 5.2%; Percent Cytotoxicity (DU145 (prostate); DU145, 100 PM): 12.1 ± 0.8%; Percent Cytotoxicity (HBL100 (breast); 100 PM): NIL; Percent Cytotoxicity (SW620 (colon); SW620, 1 nM): 33.5 ± 5.2%; Percent Cytotoxicity (SW620 (colon); SW620, 10 nM): 38.1 ± 7.3%; Percent Cytotoxicity (SW620 (colon); SW620, 100 nM): 23.5 ± 5.1%; Percent Cytotoxicity (SW620 (colon); SW620, 100 PM): 24.8 ± 4.2%
CC[C@H](C)[C@H](NC(=O)[C@H](Cc1c[nH]cn1)NC(=O)C(C)(C)NC(=O)[C@@H](NC(=O)[C@H](C)NC(=O)[C@H](Cc1c[nH]c2ccccc12)NC(=O)[C@H](CCC(N)=O)NC(=O)[C@H](N)Cc1ccccc1)C(C)C)C(N)=O [SEQ ID: 7, D-Phe-Gln-Trp-Ala-Val-Aib-His-Ile-NH2] (H-[dF]QWAV[Aib]HI-NH2; N-terminus assumed) | NIL | NIL | 13.1 ± 0.3% | 17.9 ± 0.9 | 6.7 ± 2.0 | 12.4 ± 2.1 | 7.6 ± 0.7 | 9.3 ± 1.8 | 8.2 ± 0.9 | 28.2 ± 2.8 | 15.5 ± 1.9% | NIL | NIL | 25.6 ± 2.9 | 22.7 ± 3.4 | 9.6 ± 4.1 | 24.5 ± 4.2 | 12.0 ± 0.7 | 7.0 ± 0.7 | 16.1 ± 3.9 | Percent Cytotoxicity (HBL100 (breast); 100 PM): 4.0 ± 0.6%; Percent Cytotoxicity (SW620 (colon); SW620, 1 nM): 32.0 ± 5.8%; Percent Cytotoxicity (SW620 (colon); SW620, 10 nM): 20.8 ± 1.9%; Percent Cytotoxicity (SW620 (colon); SW620, 100 nM): 25.4 ± 2.9%; Percent Cytotoxicity (SW620 (colon); SW620, 100 PM): 33.6 ± 5.8%
CCCC(CCC)(NC(=O)[C@@H](NC(=O)[C@H](C)NC(=O)[C@@H](Cc1c[nH]c2ccccc12)NC(=O)[C@H](CCC(N)=O)NC(=O)[C@H](N)Cc1ccccc1)C(C)C)C(=O)N[C@@H](Cc1c[nH]cn1)C(=O)N[C@@H](CC(C)C)C(N)=O [SEQ ID: 8, D-Phe-Gln-D-Trp-Ala-Val-Dpg-His-Leu-NH2] | 9.3 ± 0.2% | 12.8 ± 3.3% | 2.6 ± 0.1% | 20.7 ± 2.2 | 21.7 ± 3.3 | 12.5 ± 1.7 | 5.4 ± 1.7 | 8.7 ± 2.1 | 12.3 ± 1.9 | 18.9 ± 4.2 | 34.8 ± 4.2% | 22.5 ± 2.2% | 19.1 ± 2.1% | 23.8 ± 4.2 | 20.4 ± 3.0 | 10.4 ± 3.7 | 23.3 ± 5.5 | 12.2 ± 1.9 | 14.4 ± 2.1 | 11.9 ± 2.1 | Percent Cytotoxicity (MOLT-4 (leukemia); MOLT4, 100 PM): 16.6 ± 3.1%; Percent Cytotoxicity (A549 (lung); A549, 1 nM): 19.7 ± 3.1%; Percent Cytotoxicity (A549 (lung); A549, 100 PM): 17.0 ± 2.7%; Percent Cytotoxicity (HT-29 (colon); HT29, 1 nM): 34.7 ± 3.3%; Percent Cytotoxicity (HT-29 (colon); HT29, 100 PM): 21.4 ± 3.1%; Percent Cytotoxicity (DU145 (prostate); DU145, 1 nM): 21.4 ± 6.2%; Percent Cytotoxicity (DU145 (prostate); DU145, 100 PM): 28.1 ± 3.5%; Percent Cytotoxicity (HBL100 (breast); 100 PM): 12.1 ± 1.9%; Percent Cytotoxicity (SW620 (colon); SW620, 1 nM): 20.6 ± 3.9%; Percent Cytotoxicity (SW620 (colon); SW620, 10 nM): 33.0 ± 3.8%; Percent Cytotoxicity (SW620 (colon); SW620, 100 nM): 29.4 ± 2.9%; Percent Cytotoxicity (SW620 (colon); SW620, 100 PM): 20.6 ± 3.9%

From US6989371B1, “Bombesin analogs for treatment of cancer” (Dabur Research Foundation, priority 1996, dated 2006)
